{"source": "ChEMBL document CHEMBL4507319", "about": "(2021)", "key": {"[1]": {"biological_target": "Death-associated protein kinase 2 (Homo sapiens) (UniProt Q9UIK4)", "sequence (Q9UIK4 whole entry, looked up)": "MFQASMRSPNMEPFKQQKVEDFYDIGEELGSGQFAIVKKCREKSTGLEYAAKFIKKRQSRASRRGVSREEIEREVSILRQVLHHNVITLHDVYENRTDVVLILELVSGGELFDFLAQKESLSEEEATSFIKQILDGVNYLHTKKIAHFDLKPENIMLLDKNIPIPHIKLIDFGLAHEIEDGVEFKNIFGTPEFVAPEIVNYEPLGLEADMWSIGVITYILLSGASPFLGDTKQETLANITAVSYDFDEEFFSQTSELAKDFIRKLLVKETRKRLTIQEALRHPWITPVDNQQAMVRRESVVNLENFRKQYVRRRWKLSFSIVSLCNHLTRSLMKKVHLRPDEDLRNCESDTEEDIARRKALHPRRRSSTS", "test": "DAPK2(h) Eurofins kinase panel", "conditions": "Compound concentration 1.0 uM"}, "[2]": {"biological_target": "T1, Ephrin type-A receptor 8 (Homo sapiens) (UniProt P29322)", "T1 sequence (whole entry)": "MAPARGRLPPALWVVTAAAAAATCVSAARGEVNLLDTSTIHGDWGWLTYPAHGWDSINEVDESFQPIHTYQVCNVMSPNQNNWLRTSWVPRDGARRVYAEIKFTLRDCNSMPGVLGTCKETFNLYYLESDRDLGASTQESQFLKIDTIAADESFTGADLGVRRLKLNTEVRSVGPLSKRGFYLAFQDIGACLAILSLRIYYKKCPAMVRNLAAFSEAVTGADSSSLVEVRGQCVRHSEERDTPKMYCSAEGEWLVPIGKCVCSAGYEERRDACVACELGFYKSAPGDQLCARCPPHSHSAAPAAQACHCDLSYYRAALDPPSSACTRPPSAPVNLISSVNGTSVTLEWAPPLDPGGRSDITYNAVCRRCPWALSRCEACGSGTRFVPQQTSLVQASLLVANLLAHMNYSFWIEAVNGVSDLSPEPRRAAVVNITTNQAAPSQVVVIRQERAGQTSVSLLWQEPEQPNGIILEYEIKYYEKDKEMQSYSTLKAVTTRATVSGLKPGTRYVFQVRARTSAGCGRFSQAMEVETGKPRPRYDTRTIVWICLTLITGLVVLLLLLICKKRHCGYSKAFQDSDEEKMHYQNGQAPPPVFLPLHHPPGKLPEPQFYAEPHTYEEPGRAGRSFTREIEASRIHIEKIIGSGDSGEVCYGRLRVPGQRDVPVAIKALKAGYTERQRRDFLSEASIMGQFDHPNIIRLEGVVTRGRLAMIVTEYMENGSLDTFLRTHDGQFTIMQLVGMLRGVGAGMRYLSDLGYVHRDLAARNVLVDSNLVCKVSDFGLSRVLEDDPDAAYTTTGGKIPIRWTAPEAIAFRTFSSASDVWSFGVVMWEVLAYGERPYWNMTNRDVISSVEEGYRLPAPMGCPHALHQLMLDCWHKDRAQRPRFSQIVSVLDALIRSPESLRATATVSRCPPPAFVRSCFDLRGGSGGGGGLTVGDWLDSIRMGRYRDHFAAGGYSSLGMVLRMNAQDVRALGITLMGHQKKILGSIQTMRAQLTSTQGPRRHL", "test": "EphA8(h) Eurofins kinase panel", "conditions": "Compound concentration 1.0 uM"}, "[3]": {"biological_target": "Mitogen-activated protein kinase 9 (Homo sapiens) (UniProt P45984)", "sequence (P45984 whole entry, looked up)": "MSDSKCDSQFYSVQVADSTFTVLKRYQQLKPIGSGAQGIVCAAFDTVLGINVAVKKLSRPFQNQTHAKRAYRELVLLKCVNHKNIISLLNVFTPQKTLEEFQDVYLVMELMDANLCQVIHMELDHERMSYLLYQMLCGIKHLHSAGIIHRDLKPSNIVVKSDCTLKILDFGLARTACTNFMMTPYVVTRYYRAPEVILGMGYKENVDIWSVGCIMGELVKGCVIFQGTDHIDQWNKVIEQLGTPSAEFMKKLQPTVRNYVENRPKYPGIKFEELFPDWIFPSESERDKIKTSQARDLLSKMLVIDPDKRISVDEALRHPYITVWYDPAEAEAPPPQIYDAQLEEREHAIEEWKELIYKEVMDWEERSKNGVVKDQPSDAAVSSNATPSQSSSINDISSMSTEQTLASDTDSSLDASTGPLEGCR", "test": "JNK2alpha2(h) Eurofins kinase panel", "conditions": "Compound concentration 1.0 uM"}, "[4]": {"biological_target": "Leukocyte tyrosine kinase receptor (Homo sapiens) (UniProt P29376)", "sequence (P29376 whole entry)": "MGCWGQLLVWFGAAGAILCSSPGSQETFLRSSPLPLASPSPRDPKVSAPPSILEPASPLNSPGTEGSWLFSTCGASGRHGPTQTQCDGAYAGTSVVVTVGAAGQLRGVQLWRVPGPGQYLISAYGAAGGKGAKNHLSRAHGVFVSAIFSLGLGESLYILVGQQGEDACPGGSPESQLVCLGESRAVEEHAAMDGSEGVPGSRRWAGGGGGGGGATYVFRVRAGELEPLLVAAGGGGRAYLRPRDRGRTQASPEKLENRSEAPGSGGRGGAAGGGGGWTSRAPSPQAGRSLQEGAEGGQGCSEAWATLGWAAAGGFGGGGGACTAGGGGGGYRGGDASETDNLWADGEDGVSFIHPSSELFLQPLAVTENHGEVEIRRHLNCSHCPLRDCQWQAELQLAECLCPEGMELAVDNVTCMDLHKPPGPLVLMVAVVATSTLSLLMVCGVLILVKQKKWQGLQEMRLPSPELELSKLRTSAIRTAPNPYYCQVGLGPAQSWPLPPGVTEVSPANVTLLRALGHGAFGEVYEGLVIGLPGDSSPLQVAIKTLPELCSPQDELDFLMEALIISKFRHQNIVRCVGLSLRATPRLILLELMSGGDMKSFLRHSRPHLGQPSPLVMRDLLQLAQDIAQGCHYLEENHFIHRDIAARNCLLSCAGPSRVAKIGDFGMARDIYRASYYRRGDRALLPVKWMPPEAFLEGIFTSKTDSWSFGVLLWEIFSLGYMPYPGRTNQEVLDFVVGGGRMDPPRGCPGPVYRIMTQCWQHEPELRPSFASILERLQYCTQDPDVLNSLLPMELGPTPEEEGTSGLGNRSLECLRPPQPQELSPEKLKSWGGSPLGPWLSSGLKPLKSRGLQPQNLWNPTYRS", "test": "LTK(h) Eurofins kinase panel", "conditions": "Compound concentration 1.0 uM"}, "[5]": {"biological_target": "Mitogen-activated protein kinase kinase kinase kinase 4 (Homo sapiens) (UniProt O95819)", "sequence (O95819 2-1239 limits assumed)": "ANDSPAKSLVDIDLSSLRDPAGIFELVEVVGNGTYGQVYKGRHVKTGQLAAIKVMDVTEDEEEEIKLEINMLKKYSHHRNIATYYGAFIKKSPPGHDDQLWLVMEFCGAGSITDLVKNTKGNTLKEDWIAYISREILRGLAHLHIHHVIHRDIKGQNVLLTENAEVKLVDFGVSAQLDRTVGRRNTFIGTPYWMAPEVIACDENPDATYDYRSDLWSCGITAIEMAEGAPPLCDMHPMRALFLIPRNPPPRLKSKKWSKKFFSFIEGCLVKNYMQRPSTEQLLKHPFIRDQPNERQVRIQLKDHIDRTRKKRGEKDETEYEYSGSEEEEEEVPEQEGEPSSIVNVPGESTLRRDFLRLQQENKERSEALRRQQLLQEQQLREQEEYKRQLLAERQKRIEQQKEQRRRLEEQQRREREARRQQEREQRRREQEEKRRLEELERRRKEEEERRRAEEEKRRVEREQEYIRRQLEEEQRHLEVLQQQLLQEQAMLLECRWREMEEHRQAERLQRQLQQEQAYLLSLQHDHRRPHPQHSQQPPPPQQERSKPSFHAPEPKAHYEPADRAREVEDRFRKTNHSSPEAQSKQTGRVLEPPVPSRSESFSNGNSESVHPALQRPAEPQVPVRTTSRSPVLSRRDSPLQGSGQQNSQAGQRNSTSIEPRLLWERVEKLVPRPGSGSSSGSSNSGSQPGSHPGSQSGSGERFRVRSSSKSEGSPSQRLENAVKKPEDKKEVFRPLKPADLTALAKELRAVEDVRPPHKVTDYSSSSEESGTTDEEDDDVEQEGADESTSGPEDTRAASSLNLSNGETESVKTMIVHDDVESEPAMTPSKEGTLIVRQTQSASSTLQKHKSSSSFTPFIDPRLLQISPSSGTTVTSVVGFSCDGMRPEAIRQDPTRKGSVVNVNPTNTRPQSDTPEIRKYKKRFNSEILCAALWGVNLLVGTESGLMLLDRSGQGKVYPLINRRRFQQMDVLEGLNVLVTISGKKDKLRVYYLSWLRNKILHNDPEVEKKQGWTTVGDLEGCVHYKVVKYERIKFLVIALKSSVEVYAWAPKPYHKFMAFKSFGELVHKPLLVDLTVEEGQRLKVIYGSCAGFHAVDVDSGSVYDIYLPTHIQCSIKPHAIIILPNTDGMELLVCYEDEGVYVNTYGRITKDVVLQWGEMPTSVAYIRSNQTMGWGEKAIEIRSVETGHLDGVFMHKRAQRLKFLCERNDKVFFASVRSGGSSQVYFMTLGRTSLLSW", "test": "MAP4K4(h) Eurofins kinase panel", "conditions": "Compound concentration 1.0 uM"}, "[6]": {"biological_target": "T2, Muscle, skeletal receptor tyrosine-protein kinase (Homo sapiens) (UniProt O15146)", "T2 sequence (whole entry)": "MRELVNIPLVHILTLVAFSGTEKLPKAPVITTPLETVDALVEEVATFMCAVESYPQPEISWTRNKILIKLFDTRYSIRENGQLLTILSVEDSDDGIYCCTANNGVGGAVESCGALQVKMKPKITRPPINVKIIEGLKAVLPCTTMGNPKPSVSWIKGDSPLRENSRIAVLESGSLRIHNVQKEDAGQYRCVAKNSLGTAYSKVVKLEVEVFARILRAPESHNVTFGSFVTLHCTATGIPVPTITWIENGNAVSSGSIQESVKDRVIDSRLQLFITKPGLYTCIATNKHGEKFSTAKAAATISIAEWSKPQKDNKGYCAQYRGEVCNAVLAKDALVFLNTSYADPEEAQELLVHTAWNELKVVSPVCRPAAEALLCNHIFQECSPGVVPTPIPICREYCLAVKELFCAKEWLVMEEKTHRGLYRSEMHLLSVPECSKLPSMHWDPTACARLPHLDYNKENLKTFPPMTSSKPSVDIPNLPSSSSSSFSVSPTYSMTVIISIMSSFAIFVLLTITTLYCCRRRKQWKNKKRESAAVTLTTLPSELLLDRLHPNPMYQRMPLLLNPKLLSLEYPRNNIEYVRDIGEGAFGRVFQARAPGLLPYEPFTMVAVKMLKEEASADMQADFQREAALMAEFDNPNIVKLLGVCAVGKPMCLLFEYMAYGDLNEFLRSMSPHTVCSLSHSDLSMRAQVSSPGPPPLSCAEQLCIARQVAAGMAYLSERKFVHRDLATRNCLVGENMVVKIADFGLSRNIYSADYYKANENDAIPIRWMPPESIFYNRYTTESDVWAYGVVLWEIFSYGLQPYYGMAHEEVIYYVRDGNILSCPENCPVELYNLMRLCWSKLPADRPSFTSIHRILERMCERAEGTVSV", "test": "MuSK(h) Eurofins kinase panel", "conditions": "Compound concentration 1.0 uM"}, "[7]": {"biological_target": "T3, Tyrosine-protein kinase receptor TYRO3 (Homo sapiens) (UniProt Q06418)", "T3 sequence (whole entry)": "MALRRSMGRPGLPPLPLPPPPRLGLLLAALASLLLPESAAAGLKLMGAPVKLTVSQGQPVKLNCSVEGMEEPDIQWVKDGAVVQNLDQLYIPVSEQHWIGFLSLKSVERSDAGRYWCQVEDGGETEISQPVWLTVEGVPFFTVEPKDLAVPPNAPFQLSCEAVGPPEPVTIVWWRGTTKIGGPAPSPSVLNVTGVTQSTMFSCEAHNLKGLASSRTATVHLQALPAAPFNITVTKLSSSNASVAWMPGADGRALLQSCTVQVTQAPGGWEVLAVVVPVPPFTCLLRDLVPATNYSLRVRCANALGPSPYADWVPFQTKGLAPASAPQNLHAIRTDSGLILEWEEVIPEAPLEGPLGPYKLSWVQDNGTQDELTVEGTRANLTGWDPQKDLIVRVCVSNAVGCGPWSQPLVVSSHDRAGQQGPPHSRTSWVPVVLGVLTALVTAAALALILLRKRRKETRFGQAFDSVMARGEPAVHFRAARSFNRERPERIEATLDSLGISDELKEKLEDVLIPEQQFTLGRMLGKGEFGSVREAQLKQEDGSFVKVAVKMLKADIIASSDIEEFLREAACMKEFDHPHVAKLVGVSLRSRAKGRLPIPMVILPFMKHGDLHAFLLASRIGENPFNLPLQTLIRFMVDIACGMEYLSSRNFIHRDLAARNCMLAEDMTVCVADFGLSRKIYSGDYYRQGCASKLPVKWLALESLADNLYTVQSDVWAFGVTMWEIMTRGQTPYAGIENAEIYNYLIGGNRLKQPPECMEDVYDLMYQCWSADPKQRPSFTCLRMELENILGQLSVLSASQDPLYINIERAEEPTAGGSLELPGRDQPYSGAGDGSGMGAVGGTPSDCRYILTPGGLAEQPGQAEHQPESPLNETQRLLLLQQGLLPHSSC", "test": "Rse(h) Eurofins kinase panel", "conditions": "Compound concentration 1.0 uM"}, "[8]": {"biological_target": "Serine/threonine-protein kinase tousled-like 2 (Homo sapiens) (UniProt Q86UE8)", "sequence (Q86UE8 whole entry, looked up)": "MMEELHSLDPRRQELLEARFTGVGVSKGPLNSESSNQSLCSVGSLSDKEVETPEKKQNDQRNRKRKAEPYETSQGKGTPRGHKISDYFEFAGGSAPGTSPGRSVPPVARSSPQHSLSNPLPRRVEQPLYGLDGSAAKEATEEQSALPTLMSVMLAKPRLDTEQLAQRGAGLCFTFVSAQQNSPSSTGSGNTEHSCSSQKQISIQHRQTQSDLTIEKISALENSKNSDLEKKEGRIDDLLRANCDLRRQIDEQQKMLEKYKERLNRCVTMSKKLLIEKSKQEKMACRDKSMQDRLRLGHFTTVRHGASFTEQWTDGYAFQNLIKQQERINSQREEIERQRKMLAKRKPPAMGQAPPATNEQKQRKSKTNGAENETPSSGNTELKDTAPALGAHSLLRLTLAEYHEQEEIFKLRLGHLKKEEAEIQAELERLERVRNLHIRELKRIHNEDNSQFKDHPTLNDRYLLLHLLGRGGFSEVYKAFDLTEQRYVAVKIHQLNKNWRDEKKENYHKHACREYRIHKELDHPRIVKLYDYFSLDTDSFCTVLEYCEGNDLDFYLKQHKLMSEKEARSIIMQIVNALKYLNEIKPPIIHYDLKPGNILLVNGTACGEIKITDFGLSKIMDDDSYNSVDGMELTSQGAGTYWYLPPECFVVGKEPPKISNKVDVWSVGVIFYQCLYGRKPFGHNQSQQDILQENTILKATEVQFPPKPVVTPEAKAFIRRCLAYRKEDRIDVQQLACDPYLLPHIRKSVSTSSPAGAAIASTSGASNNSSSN", "test": "TLK2(h) Eurofins kinase panel", "conditions": "Compound concentration 1.0 uM"}, "VCaP": {"system": "VCaP", "test": "VCaP cell line Proliferation assay", "type": "functional, Homo sapiens", "conditions": "time 6 day"}}}
{"compound": "CCc1ccccc1C(=O)Nc1n[nH]c2c(C)c(F)c(C3C(C#N)=C(C)N(C)C(C)=C3C#N)cc12", "note": "[BAY-3827]", "values": [{"measurement": "% residual kinase activity", "setting": "[1]", "value": 96, "unit": "%"}, {"measurement": "% residual kinase activity", "setting": "[2]", "value": 102, "unit": "%"}, {"measurement": "% residual kinase activity", "setting": "[3]", "value": 88, "unit": "%"}, {"measurement": "% residual kinase activity", "setting": "[4]", "value": 100, "unit": "%"}, {"measurement": "% residual kinase activity", "setting": "[5]", "value": 91, "unit": "%"}, {"measurement": "% residual kinase activity", "setting": "[6]", "value": 91, "unit": "%"}, {"measurement": "% residual kinase activity", "setting": "[7]", "value": 105, "unit": "%"}, {"measurement": "% residual kinase activity", "setting": "[8]", "value": 96, "unit": "%"}, {"measurement": "Cell Proliferation IC50", "setting": "VCaP", "value": 1.71, "unit": "µM"}]}
